The subject of series [1] is cells of CML patients in blast crisis, K-28 (b3a2) type junction. The series is described as follows: Colony formation of CML blast crisis patient cells expressing the b3a2 (K-28) junction. The format is cell-based, human. Conditions: antisense to L-6 junction on K-28 cells, compared with untreated cells. From the text: To identify CML blast crisis patients carrying the second common type junction, in which bcr exon 3 is juxtaposed to c-abl exon 2, total RNA derived from cells of CML patients in blast crisis was reverse-transcribedwith synthetic primers. The 3' primer (SEQ ID NO:10) was complementary to 22 nucleotides of c-abl. exon 2. The 5' primer was the 22-mer GTCATCGTCCACTCAGCCACTG (SEQ ID NO:12) complementary to 22 nucleotides of bcr exon 3. The RNA was amplified by polymerase chain reaction according to Example 1. The amplification products were then hybridized with the synthetic 18-mer oligonucleotide GAAGGGCTTT TGAACTCT (SEQ ID NO:6), which is complementary to the b3a2 junction. After cloning of breakpoints in two patients, sequence analysis of several clones identified the b3a2 junction as precisely corresponding to the K-28 breakpoint shown in FIG. 3. (SEQ ID NO:4).
Utilizing the culture condition and oligomer treatment conditions of Example 1, cells were exposed to either no oligomer (FIG. 4A), the 18-nucleotide synthetic oligomer GAAGTGCTGT TGAACTCT (SEQ ID NO:5) partially complementary to the b3a2 junction, containing 9 nucleotides corresponding to bcr and 9 nucleotides corresponding to c-abl but with two mismatches (FIG. 4B); or the 18-nucleotide synthetic oligomer GAAGGGCTTT TGAACTCT (SEQ ID NO:6) completely complementary to the same bcr-abl junction (FIG. 4C).

For another series, the system named is BV173 cells. The series is described as follows: Macroscopic examination / disease state of leukemic SCID mice. The format is in vivo, SCID mice (human leukemic cells). As for the experimental part:
Injection of the mice with BV173 cells induces a disease closely resembling that in human leukemia patients.
(§1) To determine whether synthetic phosphorothioate oligodeoxynucleotides targeted against the bcr-abl junction of […] cells would modify the disease process in SCID mice. SCID mice were injected with 10^6 BV173 cells. The mice then received 1 mg of sense (ATCAATAAGG AAGCCCTTCAGCG, SEQ ID NO:34) or antisense ([…] ATTGAT, SEQ ID NO:29) b2/a2 bcr-abl phosphorothioate oligodeoxynucleotides (pyrogen leven <1 Eu/mg; 0.2 ml in Iscove modified Dulbecco medium in 5-10 seconds) intravenously for each of 9 consecutive days, beginning either 7 or 21 days after introducing 10^6 BV173 cells. Control mice received the diluent (iscove's modified Dulbecco medium) only. These time points approximate distinct disease stages in humans.

Another series relates to BV173 cells (b2/a2). The series is described as follows: Proliferation of BV173 cells expressing b2a2 junction. Conditions: in comparison to untreated control cells (FIG. 7). The format is cell-based, human. Here is the method: Amplification of the bcr-abl junction with a 5' primer corresponding to bcr exon 2, and a 3' primer corresponding to abl exon 2, followed by hybridization to an 18-mer specific for the b2/a2 or the b3/a2 junction identified the b2/a2 breakpoint in these cells (data not shown).
The sensitivity of the BV173 cells to b2/a2 antisense phosphorothioate oligodeoxynucleotides was assessed. Phosphorothioate oligodeoxynucleotides were prepared on either an Applied Biosystems Model 380B or 390Z Automated Synthesis instrument using conventional phosphoramidite monomers and manufacturer-recommended procedures, which included substitution of tetraethylthiuran (or an equivalent sulfur-donor reagent) for iodine-water-pyridine, […] reversed-phase preparative chromatography, detritylation, and obtaining the final product in the form of its sodium salt, all according to previously published methodology: Zon and Stec, in Oligonucleotides and Analogues A Practical Approach, F. Eckstein, Ed. (Oxford Univerisity Press, Oxford 1991), pp. 87-108; Zon and Geiser, Anti-Cancer Drug Design 6, 539 (1991); Vu and Hirschenbein, Tetrahedron Lett. 32, 3005-3008 (1991).
BV173 cells were cultured in the presence of phosphorothioate b2/a2 antisense 26-mer CGCTGAAGGG CTTCTTCCT ATTGAT (SEQ ID NO:29), the phosphorothioate sense sequence ATCAATAAGGAAGCCCTTCAGCG (SEQUENCE ID NO:34), or the b3/a2 (SEQ ID NO:31) or b1/a2 (SEQ ID N0:33) phosphorothioate antisense 26-mer. […] The sense oligomer SEQ ID NO:34 gave no inhibition (FIG. 7, -.largecircle.-) in comparison to untreated control cells (FIG. 7, -.quadrature.-).

For series [2], the system named is BV173 cells (cALL antigen (CALLA)-positive cells). The series is described as follows: Immunofluorescence / flow cytometry of CALLA-positive cells in tissues of leukemic SCID mice. The format is in vivo, SCID mice (human leukemic cells). Here is the method: A first assay comprised an immunofluorescence analysis of cALL antigen (CALLA)-positive cells. All BV173 cells but not normal murine hematopoietic cells express this antigen (assay sensitivity=10^-2). Single cell suspensions were prepared for flow cytometry analysis from peripheral blood, spleen and bone marrow cells of the leukemic SCID mice by centrifugation on a lymphocyte-M gradient (Cedarlane Labs, Ltd., Ontario, Canada). Cells (1×10^5) were stained with the FITC-conjugated mouse anti-CALLA monoclonal antibody (Becton-Dickinson Immunocytometry Systems, San Jose, Calif.) to human CD10 antigen. After staining, cells were washed and analyzed by flow cytometry using the Epics Profile Analyzer (Coulter Electronic).
as §1
On the technique in general: Flow cytometry measures light scatter and fluorescence of single cells or particles in a stream.

The mark [3] stands for this setting: 1 mg/day i.v. x9 from day +7, 26 days after last treatment (6 weeks).
The mark [4] stands for this setting: from day +21, 1 mg/day x9, 26 days after treatment (8 weeks).

“Also recorded” adds a separate entry of the source.

Take “SEQ ID NO:3: synthetic 18-mer GAAGGGCTTC TTCCTTAT specific for the 18-nucleotide target sequence of the L-6 bcr-abl junction (antisense GAAGGGCTTCTTCCTTAT; chemistry not given here)”: in series [1], the “inhibition of colony formation” value is listed as 2.5-5% and the “reduction of colony formation” value is reported as “No significant reduction of colony formation”.

Turning to “SEQ ID NO:34: phosphorothioate sense sequence ATCAATAAGGAAGCCCTTCAGCG (23-mer b2a2 sense) (sense ATCAATAAGGAAGCCCTTCAGCG; all phosphorothioate, sugars by position and methylation of C not given here)”, the “evidence of active leukemic disease process” value with BV173 cells (1 mg/mouse x9 i.v. from day 7 or 21) is “macroscopic, microscopic and molecular evidence of an active leukemic disease process”. Besides, in the series with BV173 cells (from day +7, 26 days after last treatment (6 weeks)), the “macroscopic examination: leukemic nodules in liver and kidneys” value is “in addition to spleen enlargement, the presence of distinct leukemic nodules in liver and kidneys”. The “splenomegaly and leukemic metastases in the liver” value with BV173 cells (from day +21, 12 days after last treatment (6 weeks)) was “splenomegaly and leukemic metastases in the liver were detected”. The “macroscopic examination: metastases / leukemic nodules in liver, kidneys, splenomegaly” value with BV173 cells (from day +21, 26 days after treatment (8 weeks), FIG. 11) is “numerous metastases in the liver (FIG. 11A), a few in the kidneys, and splenomegaly; also recorded: Numerous distinct leukemic nodules are visible in the liver”. Further, the “inhibition of proliferation of BV173 cells” value in the series with BV173 cells (b2/a2) is reported as “no inhibition”. The “CALLA+ cells, bone marrow” value was “detected in bone marrow of control and sense-treated animal” in series [2] (1 mg/day i.v. x9 from day +7, 12 days after last treatment (4 weeks)); 16.8±1.8% in series [2] (setting [3]); 10.0±0.5% in series [2] (from day +21, 1 mg/day x9, 12 days after last treatment (6 weeks), control 17.7±1.8); 23.9±5.0% in series [2] (setting [4]). In addition, the “CALLA+ cells, peripheral blood” value in series [2] (setting [3]) was found to be 1.9±0.2%; in series [2] (from day +21, 1 mg/day x9, 12 days after last treatment (6 weeks), control 1.0±0.1), 0.9±0.1; in series [2] (setting [4]), 2.0±0.3%. In addition, the “CALLA+ cells, spleen” value in series [2] (setting [3]) is listed as 4.1±0.2%; in series [2] (from day +21, 1 mg/day x9, 12 days after last treatment (6 weeks), control 1.9±0.1) it was 1.9±0.8%; in series [2] (setting [4]), 9.9±1.8%.

The record behind these values is patent US5652222A, “Selective inhibition of leukemic cell proliferation by bcr-abl antisense oligonucleotides” (Temple University-of The Commonwealth System of Higher …, priority 1993, dated 1997).
